Test results published in PubChem BioAssay (NCI).
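Tested at 5 concentrations; 48 h exposure; 96-well plates; endpoints linearly interpolated, else capped at highest concentration. GI50: concentration for 50% inhibition of growth. The concentration for full growth arrest is given as TGI.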

Columns and labels:
Test in all cases: NCI-60 cell line screen, 48 h
ACHN renal = test system: ACHN renal
UACC-257 melanoma = test system: UACC-257 melanoma
MALME-3M melanoma = test system: MALME-3M melanoma
T-47D breast = test system: T-47D breast
SNB-19 CNS = test system: SNB-19 CNS
SK-MEL-28 melanoma = test system: SK-MEL-28 melanoma
SF-295 CNS = test system: SF-295 CNS
EKVX NSCLC = test system: EKVX NSCLC
HT29 colon = test system: HT29 colon
DU-145 prostate = test system: DU-145 prostate

Structure (SMILES) | GI50 (ACHN renal) | TGI (ACHN renal) | GI50 (UACC-257 melanoma) | TGI (UACC-257 melanoma) | GI50 (MALME-3M melanoma) | TGI (MALME-3M melanoma) | GI50 (T-47D breast) | TGI (T-47D breast) | GI50 (SNB-19 CNS) | TGI (SNB-19 CNS) | GI50 (SK-MEL-28 melanoma) | TGI (SK-MEL-28 melanoma) | GI50 (SF-295 CNS) | TGI (SF-295 CNS) | GI50 (EKVX NSCLC) | TGI (EKVX NSCLC) | GI50 (HT29 colon) | TGI (HT29 colon) | GI50 (DU-145 prostate) | TGI (DU-145 prostate)
CC[CH2][Sn]([Cl])([Cl])[CH2]CC | 6.88 µM | 20 µM | 4.59 µM | 19.2 µM | 1.55 µM | 4.91 µM | 1.17 µM | 3.36 µM | 13.2 µM | 25.9 µM | 11.4 µM | 23.7 µM | 17.2 µM | 33.4 µM | 12.3 µM | 26.4 µM | 14.4 µM | 30.9 µM | 14.5 µM | 28.6 µM
O=C(NNC(=O)c1ccncc1)c1ccncc1 |  | > 100 µM |  | > 100 µM |  | > 100 µM |  | > 100 µM |  | > 100 µM |  | > 100 µM |  | > 100 µM |  | > 100 µM |  | > 100 µM |  | > 100 µM
COc1ccc(C2=C(c3cc(OC)c(OC)c(OC)c3)C(=O)CC2)cc1 | 1.8 µM | > 100 µM |  | > 100 µM | > 100 µM | > 100 µM | 24.6 µM | > 100 µM | 0.41 µM | > 100 µM | 0.489 µM | > 100 µM | 0.0548 µM | > 20.5 µM | 0.699 µM | > 100 µM | 0.0845 µM | 15.3 µM | 0.294 µM | 
CC1=C([Se]CC(OC(=O)[C@@H](CO)NC(=O)OC(C)(C)C)C(=O)NC(C)(C)C)C(=O)c2ccccc2C1=O (stereo partly drawn) | 1.57 µM | 3.02 µM | 1.74 µM | 3.23 µM | 2.04 µM | 3.77 µM | 0.332 µM | 1.06 µM | 0.66 µM | 2 µM | 2.06 µM | 3.55 µM | 0.316 µM | 1.06 µM | 1.76 µM | 3.71 µM | 2.3 µM | 4.74 µM | 1.9 µM | 3.37 µM
CC(=O)OC1CCC2(C)C(=CCC3C2CCC2(C)C(C(C)C(=O)O)CCC32)C1 (stereo not drawn) |  | > 100 µM |  | > 100 µM |  | > 100 µM |  | > 100 µM |  | > 100 µM |  | > 100 µM |  | > 100 µM |  | > 100 µM |  | > 100 µM |  | > 100 µM
O=c1[nH]c(SCc2c(Cl)c(Cl)c(Cl)c(Cl)c2Cl)nc(=S)[nH]1 |  | > 100 µM |  | > 100 µM |  | 73.4 µM |  | > 82.9 µM |  | > 100 µM |  | 98.6 µM |  | > 100 µM |  | > 100 µM |  | > 63 µM |  | > 100 µM
CC(=O)OC[C@]12CC[C@@H]([C@@H](C)C(N)=O)[C@@H]1[C@H]1CC[C@@H]3[C@@]4(C)CC[C@H](OC(C)=O)C(C)(C)[C@@H]4CC[C@@]3(C)[C@]1(C)CC2 | 5.78 µM | 27.3 µM | 4.83 µM | 22.7 µM | 10.5 µM | 24.2 µM | 2.91 µM | 12.9 µM | 11.9 µM | 29.1 µM | 12 µM | 27.3 µM | 8.57 µM | 29.8 µM | 9.27 µM | 22.5 µM | 3.73 µM | 15.4 µM | 9.94 µM | 23.3 µM
